# Test results: publication PMC12848717, “Discovery of Encrypted Peptides in a Human Matrix Metallopeptidase” (JACS Au, 2025)
# Like-named read-outs stand apart in the source and are kept apart here. Ends that are not written are not given here.
# Tests used:
# A. baumannii ATCC 19606 = settings: for MIC after treatment 1: serial exposure at MIC/2, treatment 1 of 21; for MIC after treatment 2: serial exposure at MIC/2, treatment 2 of 21; for MIC after treatment 3: serial exposure at MIC/2, treatment 3 of 21; for MIC after treatment 4: serial exposure at MIC/2, treatment 4 of 21; for MIC after treatment 5: serial exposure at MIC/2, treatment 5 of 21; for MIC after treatment 6: serial exposure at MIC/2, treatment 6 of 21; for MIC after treatment 7: serial exposure at MIC/2, treatment 7 of 21; for MIC after treatment 8: serial exposure at MIC/2, treatment 8 of 21; for MIC after treatment 9: serial exposure at MIC/2, treatment 9 of 21; for MIC after treatment 10: serial exposure at MIC/2, treatment 10 of 21; for MIC after treatment 11: serial exposure at MIC/2, treatment 11 of 21; for MIC after treatment 13: serial exposure at MIC/2, treatment 13 of 21; for MIC after treatment 14: serial exposure at MIC/2, treatment 14 of 21; for MIC after treatment 15: serial exposure at MIC/2, treatment 15 of 21; for MIC after treatment 16: serial exposure at MIC/2, treatment 16 of 21; for MIC after treatment 17: serial exposure at MIC/2, treatment 17 of 21; for MIC after treatment 18: serial exposure at MIC/2, treatment 18 of 21; for MIC after treatment 19: serial exposure at MIC/2, treatment 19 of 21; for MIC after treatment 20: serial exposure at MIC/2, treatment 20 of 21; for MIC after treatment 21: serial exposure at MIC/2, treatment 21 of 21
# [1] = test system: S. epidermidis ATCC 35984; settings: for MIC after treatment 1: serial exposure at MIC/2, treatment 1 of 21; for MIC after treatment 2: serial exposure at MIC/2, treatment 2 of 21; for MIC after treatment 3: serial exposure at MIC/2, treatment 3 of 21; for MIC after treatment 4: serial exposure at MIC/2, treatment 4 of 21; for MIC after treatment 5: serial exposure at MIC/2, treatment 5 of 21; for MIC after treatment 6: serial exposure at MIC/2, treatment 6 of 21; for MIC after treatment 7: serial exposure at MIC/2, treatment 7 of 21; for MIC after treatment 8: serial exposure at MIC/2, treatment 8 of 21; for MIC after treatment 9: serial exposure at MIC/2, treatment 9 of 21; for MIC after treatment 10: serial exposure at MIC/2, treatment 10 of 21; for MIC after treatment 11: serial exposure at MIC/2, treatment 11 of 21; for MIC after treatment 13: serial exposure at MIC/2, treatment 13 of 21; for MIC after treatment 14: serial exposure at MIC/2, treatment 14 of 21; for MIC after treatment 15: serial exposure at MIC/2, treatment 15 of 21; for MIC after treatment 16: serial exposure at MIC/2, treatment 16 of 21; for MIC after treatment 17: serial exposure at MIC/2, treatment 17 of 21; for MIC after treatment 18: serial exposure at MIC/2, treatment 18 of 21; for MIC after treatment 19: serial exposure at MIC/2, treatment 19 of 21; for MIC after treatment 20: serial exposure at MIC/2, treatment 20 of 21; for MIC after treatment 21: serial exposure at MIC/2, treatment 21 of 21
# [2] = test system: Human coronavirus 229E (HCoV-229E); settings: plaque reduction
# [3] = Table S3, serial exposure at MIC/2, treatment 12 of 21
# [4] = Table S4, serial exposure at MIC/2, treatment 12 of 21
substance,measurement,setting,value
Polymyxin B [reference compound],MIC after treatment 1,A. baumannii ATCC 19606; Table S3,2 µM
same,MIC after treatment 2,A. baumannii ATCC 19606; Table S3,2 µM
same,MIC after treatment 3,A. baumannii ATCC 19606; Table S3,2 µM
same,MIC after treatment 4,A. baumannii ATCC 19606; Table S3,2 µM
same,MIC after treatment 5,A. baumannii ATCC 19606; Table S3,2 µM
same,MIC after treatment 6,A. baumannii ATCC 19606; Table S3,2 µM
same,MIC after treatment 7,A. baumannii ATCC 19606; Table S3,2 µM
same,MIC after treatment 8,A. baumannii ATCC 19606; Table S3,2 µM
same,MIC after treatment 9,A. baumannii ATCC 19606; Table S3,2 µM
same,MIC after treatment 10,A. baumannii ATCC 19606; Table S3,2 µM
same,MIC after treatment 11,A. baumannii ATCC 19606; Table S3,2 µM
same,MIC after treatment 12,A. baumannii ATCC 19606; [3],2 µM
same,MIC after treatment 13,A. baumannii ATCC 19606; Table S3,2 µM
same,MIC after treatment 14,A. baumannii ATCC 19606; Table S3,2 µM
same,MIC after treatment 15,A. baumannii ATCC 19606; Table S3,2 µM
same,MIC after treatment 16,A. baumannii ATCC 19606; Table S3,2 µM
same,MIC after treatment 17,A. baumannii ATCC 19606; Table S3,2 µM
same,MIC after treatment 18,A. baumannii ATCC 19606; Table S3,2 µM
same,MIC after treatment 19,A. baumannii ATCC 19606; Table S3,2 µM
same,MIC after treatment 20,A. baumannii ATCC 19606; Table S3,2 µM
same,MIC after treatment 21,A. baumannii ATCC 19606; Table S3,2 µM
same,MIC after treatment 1,[1]; Table S4,4 µM
same,MIC after treatment 2,[1]; Table S4,4 µM
same,MIC after treatment 3,[1]; Table S4,4 µM
same,MIC after treatment 4,[1]; Table S4,4 µM
same,MIC after treatment 5,[1]; Table S4,4 µM
same,MIC after treatment 6,[1]; Table S4,4 µM
same,MIC after treatment 7,[1]; Table S4,4 µM
same,MIC after treatment 8,[1]; Table S4,4 µM
same,MIC after treatment 9,[1]; Table S4,4 µM
same,MIC after treatment 10,[1]; Table S4,4 µM
same,MIC after treatment 11,[1]; Table S4,4 µM
same,MIC after treatment 12,[1]; [4],4 µM
same,MIC after treatment 13,[1]; Table S4,4 µM
same,MIC after treatment 14,[1]; Table S4,4 µM
same,MIC after treatment 15,[1]; Table S4,4 µM
same,MIC after treatment 16,[1]; Table S4,4 µM
same,MIC after treatment 17,[1]; Table S4,4 µM
same,MIC after treatment 18,[1]; Table S4,4 µM
same,MIC after treatment 19,[1]; Table S4,4 µM
same,MIC after treatment 20,[1]; Table S4,4 µM
same,MIC after treatment 21,[1]; Table S4,4 µM
PYLLLGRWRKKHLTFRILNLPSTLPPHTARAALR [r(P)YLL33],MIC after treatment 12,A. baumannii ATCC 19606; ATCC 19606,5 µM
same,MIC after treatment 1,A. baumannii ATCC 19606; Table S3,5 µM
same,MIC after treatment 2,A. baumannii ATCC 19606; Table S3,5 µM
same,MIC after treatment 3,A. baumannii ATCC 19606; Table S3,5 µM
same,MIC after treatment 4,A. baumannii ATCC 19606; Table S3,5 µM
same,MIC after treatment 5,A. baumannii ATCC 19606; Table S3,5 µM
same,MIC after treatment 6,A. baumannii ATCC 19606; Table S3,5 µM
same,MIC after treatment 7,A. baumannii ATCC 19606; Table S3,5 µM
same,MIC after treatment 8,A. baumannii ATCC 19606; Table S3,5 µM
same,MIC after treatment 9,A. baumannii ATCC 19606; Table S3,5 µM
same,MIC after treatment 10,A. baumannii ATCC 19606; Table S3,5 µM
same,MIC after treatment 11,A. baumannii ATCC 19606; Table S3,5 µM
same,MIC after treatment 13,A. baumannii ATCC 19606; Table S3,5 µM
same,MIC after treatment 14,A. baumannii ATCC 19606; Table S3,5 µM
same,MIC after treatment 15,A. baumannii ATCC 19606; Table S3,5 µM
same,MIC after treatment 16,A. baumannii ATCC 19606; Table S3,5 µM
same,MIC after treatment 17,A. baumannii ATCC 19606; Table S3,5 µM
same,MIC after treatment 18,A. baumannii ATCC 19606; Table S3,5 µM
same,MIC after treatment 19,A. baumannii ATCC 19606; Table S3,5 µM
same,MIC after treatment 20,A. baumannii ATCC 19606; Table S3,5 µM
same,MIC after treatment 21,A. baumannii ATCC 19606; Table S3,5 µM
same,MIC after treatment 12,[1]; ATCC 35984,5 µM
same,MIC after treatment 1,[1]; Table S4,5 µM
same,MIC after treatment 2,[1]; Table S4,5 µM
same,MIC after treatment 3,[1]; Table S4,5 µM
same,MIC after treatment 4,[1]; Table S4,5 µM
same,MIC after treatment 5,[1]; Table S4,5 µM
same,MIC after treatment 6,[1]; Table S4,5 µM
same,MIC after treatment 7,[1]; Table S4,5 µM
same,MIC after treatment 8,[1]; Table S4,5 µM
same,MIC after treatment 9,[1]; Table S4,5 µM
same,MIC after treatment 10,[1]; Table S4,5 µM
same,MIC after treatment 11,[1]; Table S4,5 µM
same,MIC after treatment 13,[1]; Table S4,5 µM
same,MIC after treatment 14,[1]; Table S4,5 µM
same,MIC after treatment 15,[1]; Table S4,5 µM
same,MIC after treatment 16,[1]; Table S4,5 µM
same,MIC after treatment 17,[1]; Table S4,5 µM
same,MIC after treatment 18,[1]; Table S4,5 µM
same,MIC after treatment 19,[1]; Table S4,5 µM
same,MIC after treatment 20,[1]; Table S4,5 µM
same,MIC after treatment 21,[1]; Table S4,5 µM
same,IC50,"[2]; read-out: IC50, co-treatment, Vero-76 cells exposed to virus and peptide simultaneously, 1 h, 37 °C",27.8 µM
same,IC50,"[2]; read-out: IC50, virus pretreatment, virus incubated with peptide 1 h, 37 °C before infection",16.4 µM
Colistin [reference compound],MIC after treatment 1,A. baumannii ATCC 19606; Table S3,4 µM
same,MIC after treatment 2,A. baumannii ATCC 19606; Table S3,4 µM
same,MIC after treatment 3,A. baumannii ATCC 19606; Table S3,4 µM
same,MIC after treatment 4,A. baumannii ATCC 19606; Table S3,4 µM
same,MIC after treatment 5,A. baumannii ATCC 19606; Table S3,4 µM
same,MIC after treatment 6,A. baumannii ATCC 19606; Table S3,4 µM
same,MIC after treatment 7,A. baumannii ATCC 19606; Table S3,4 µM
same,MIC after treatment 8,A. baumannii ATCC 19606; Table S3,4 µM
same,MIC after treatment 9,A. baumannii ATCC 19606; Table S3,4 µM
same,MIC after treatment 10,A. baumannii ATCC 19606; Table S3,4 µM
same,MIC after treatment 11,A. baumannii ATCC 19606; Table S3,4 µM
same,MIC after treatment 12,A. baumannii ATCC 19606; [3],4 µM
same,MIC after treatment 13,A. baumannii ATCC 19606; Table S3,4 µM
same,MIC after treatment 14,A. baumannii ATCC 19606; Table S3,4 µM
same,MIC after treatment 15,A. baumannii ATCC 19606; Table S3,4 µM
same,MIC after treatment 16,A. baumannii ATCC 19606; Table S3,4 µM
same,MIC after treatment 17,A. baumannii ATCC 19606; Table S3,4 µM
same,MIC after treatment 18,A. baumannii ATCC 19606; Table S3,4 µM
same,MIC after treatment 19,A. baumannii ATCC 19606; Table S3,4 µM
same,MIC after treatment 20,A. baumannii ATCC 19606; Table S3,4 µM
same,MIC after treatment 21,A. baumannii ATCC 19606; Table S3,4 µM
same,MIC after treatment 1,[1]; Table S4,8 µM
same,MIC after treatment 2,[1]; Table S4,8 µM
same,MIC after treatment 3,[1]; Table S4,8 µM
same,MIC after treatment 4,[1]; Table S4,8 µM
same,MIC after treatment 5,[1]; Table S4,8 µM
same,MIC after treatment 6,[1]; Table S4,8 µM
same,MIC after treatment 7,[1]; Table S4,8 µM
same,MIC after treatment 8,[1]; Table S4,8 µM
same,MIC after treatment 9,[1]; Table S4,8 µM
same,MIC after treatment 10,[1]; Table S4,8 µM
same,MIC after treatment 11,[1]; Table S4,8 µM
same,MIC after treatment 12,[1]; [4],8 µM
same,MIC after treatment 13,[1]; Table S4,8 µM
same,MIC after treatment 14,[1]; Table S4,8 µM
same,MIC after treatment 15,[1]; Table S4,8 µM
same,MIC after treatment 16,[1]; Table S4,8 µM
same,MIC after treatment 17,[1]; Table S4,8 µM
same,MIC after treatment 18,[1]; Table S4,8 µM
same,MIC after treatment 19,[1]; Table S4,8 µM
same,MIC after treatment 20,[1]; Table S4,8 µM
same,MIC after treatment 21,[1]; Table S4,8 µM
